Reference: US9820943B2, “Micronized amoxicillin” (DSM SINOCHEM PHARMACEUTICALS NETHERLANDS B.V., priority 2013, dated 2017)
One block for each molecule: values may come before it.

Assays:
Assay type in all cases: physicochemical
[1] = Powder dissolution, USP/NF paddle method with HPLC analysis; conditions: 500 mg in 900 mL water, 37 °C, 75 rpm; for Amoxicillin released in solution Mean: mean of 3; for Amoxicillin released in solution #1: replicate #1; for Amoxicillin released in solution #2: replicate #2; for Amoxicillin released in solution #3: replicate #3
Protocol: Dissolution analysis of amoxicillin trihydrate powder samples was carried out using the USP/NF paddle method at a rotational speed of 75 rpm. Ultrapure ELGA laboratory water (900 mL) was used as dissolution medium. Media were equilibrated to 37.0±0.5° C. prior to dissolution. Amoxicillin trihydrate sample powder (500 mg) was directly added to the dissolution apparatus (Electrolab USP-24, India). Samples were collected at 0, 1, 3, 5, 10, 15, 30, 60 and 90 min, filtered through 0.2 μm filters and analyzed by HPLC. Dissolution profiles were constructed by plotting the percentage amoxicillin released against time.
The HPLC system (Shimadzu Corporation, Kyoto, Japan) comprised of an SCL-10A VP system controller, LC-10AT VP liquid chromatograph, FCV-10AL VP flow control valve, DGU-14A degasser, SIL-10AD VP auto-injector, CTO-10AS VP column oven, SPD-M20A prominence diode array (PDA) detector and data acquisition Class-VP 6.10 software. The HPLC method was adopted from the United States Pharmacopoeia (USP). The method was validated for linearity, precision, accuracy and intra- and inter-day variability. The mobile phase was 50 mM monobasic potassium phosphate:methanol (96:4, v/v, pH 5.0). All analyses were carried out using Lichrospher® 100 RP-18e analytical column (5 μm, Merck KGaA, Darmstadt, Germany) under isocratic conditions at a flow rate of 1.0 mL·min^−1 at 25° C. with 20 μL injection volume. Effluent was monitored at a wavelength of 230 nm. Samples for calibration curve generation were prepared in 50 mM monobasic potassium phosphate:methanol 1:1 (v/v) proportion at a concentration range of 1 to 600 μg·mL^−1.
The three non-micronized (i.e. entries 1-3 of Table 1) and micronized (i.e. entries 4-6 of Table 1) amoxicillin trihydrate samples of Example 1 were subjected to a powder dissolution test (in triplicate) as outlined in the General section.

[2] = Specific powder surface area by nitrogen gas sorption (BET); conditions: triplicate, trihydrate
Protocol: Specific powder surface area was determined using nitrogen gas sorption (Smartsorb, Smart Instruments, Mumbai, India). Prior to measurements, samples were regenerated by degassing to remove moisture and contamination. The regenerated sample was dipped in liquid nitrogen and the quantity of the adsorbed gas was measured using a thermal conductivity detector and subsequently integrated using an electronic circuit in terms of counts. The instrument was calibrated by injecting a known quantity of nitrogen. The measured parameters were subsequently used to calculate the surface area of the sample by employing the adsorption theories of Brunauer, Emmett and Teller (BET).
(§1) Parameters operated were: • Augar Speed: 5-90 rpm • Primary Air Pressure: 2-8 kg·cm^−2 • Secondary Air Pressure: 4-10 kg·cm^−2 The surface area (in triplicate), average particle size and contact angle (in quadruplicate) were determined as outlined in the General section. The purity of the amoxicillin trihydrate samples was 99.4±0.3% and were void of dichloromethane, isopropanol, pivalic acid and triethyl amine.

[3] = Contact angle by sessile drop method (water); conditions: ambient conditions, trihydrate
Protocol: Contact angles of amoxicillin trihydrate powder samples were measured by the sessile drop method using an Drop Shape Analyzer instrument (FTA 1000, First Ten Angstrom, Virginia, USA). Powder samples were mounted on double sided adhesive tape adhered to a glass slide and excess powder was removed by tapping the slide. A drop of probe liquid (water) was dispersed onto the sample surface and video images were captured by the FTA image analyzer. The contact angle was calculated by the instrument by fitting a mathematical expression to the shape of the drop followed by calculating the slope of the tangent to the drop at the liquid-solid-vapor interface line. The surface tension of ultrapure ELGA laboratory water was measured to be 73±0.5 mN·m^−1 at 25° C. All measurements were performed in air under ambient conditions and an average of four measurements was reported in the below Examples.
as §1

[4] = Particle size distribution by laser diffraction (Malvern); conditions: trihydrate
Protocol: Particle size distribution values D10, D50, D90 and D100 were determined using laser diffraction applying Malvern equipment. A suitable apparatus for determining D10, D50, D90 and D100 is a Malvern particle sizer 2600 C or a Malvern Zeta Sizer.
as §1

- Amoxicillin released in solution Mean ([1]; 0 min): 0%
- Amoxicillin released in solution #1 ([1]; 0 min): 0%
- Amoxicillin released in solution #2 ([1]; 0 min): 0%
- Amoxicillin released in solution #3 ([1]; 0 min): 0%
- Amoxicillin released in solution Mean ([1]; 1 min, trihydrate): 59.73%
- Amoxicillin released in solution #1 ([1]; 1 min, trihydrate): 57.32%
- Amoxicillin released in solution #2 ([1]; 1 min, trihydrate): 60.63%
- Amoxicillin released in solution #3 ([1]; 1 min, trihydrate): 61.23%
- Amoxicillin released in solution Mean ([1]; 3 min, trihydrate): 97.65%
- Amoxicillin released in solution #1 ([1]; 3 min, trihydrate): 96.94%
- Amoxicillin released in solution #2 ([1]; 3 min, trihydrate): 97.25%
- Amoxicillin released in solution #3 ([1]; 3 min, trihydrate): 98.77%
- Amoxicillin released in solution Mean ([1]; 5 min, trihydrate): 99.78%
- Amoxicillin released in solution #1 ([1]; 5 min, trihydrate): 99.68%
- Amoxicillin released in solution #2 ([1]; 5 min, trihydrate): 100.87%
- Amoxicillin released in solution #3 ([1]; 5 min, trihydrate): 98.80%
- Amoxicillin released in solution Mean ([1]; 10 min, trihydrate): 99.25%
- Amoxicillin released in solution #1 ([1]; 10 min, trihydrate): 99.06%
- Amoxicillin released in solution #2 ([1]; 10 min, trihydrate): 99.42%
- Amoxicillin released in solution #3 ([1]; 10 min, trihydrate): 99.27%
- Amoxicillin released in solution Mean ([1]; 15 min, trihydrate): 100.29%
- Amoxicillin released in solution #1 ([1]; 15 min, trihydrate): 100.69%
- Amoxicillin released in solution #2 ([1]; 15 min, trihydrate): 100.64%
- Amoxicillin released in solution #3 ([1]; 15 min, trihydrate): 99.55%
- Amoxicillin released in solution Mean ([1]; 30 min, trihydrate): 99.18%
- Amoxicillin released in solution #1 ([1]; 30 min, trihydrate): 99.21%
- Amoxicillin released in solution #2 ([1]; 30 min, trihydrate): 99.18%
- Amoxicillin released in solution #3 ([1]; 30 min, trihydrate): 99.14%
- Amoxicillin released in solution Mean ([1]; 60 min, trihydrate): 100.16%
- Amoxicillin released in solution #1 ([1]; 60 min, trihydrate): 99.14%
- Amoxicillin released in solution #2 ([1]; 60 min, trihydrate): 100.41%
- Amoxicillin released in solution #3 ([1]; 60 min, trihydrate): 100.92%
- Amoxicillin released in solution Mean ([1]; 90 min, trihydrate): 99.44%
- Amoxicillin released in solution #1 ([1]; 90 min, trihydrate): 99.58%
- Amoxicillin released in solution #2 ([1]; 90 min, trihydrate): 99.28%
- Amoxicillin released in solution #3 ([1]; 90 min, trihydrate): 99.46%
- Surface Area Mean ± SD (n = 3) [2]: 0.72 ± 0.16 m^2 · g^−1
- Contact Angle Mean ± SD (n = 4) [3]: 71.54 ± 1.08
- Average Particle Size D10 [4]: 13.1 μm
- Average Particle Size D50 [4]: 39.3 μm
- Average Particle Size D90 [4]: 91.7 μm
- Average Particle Size D100 [4]: 230.1 μm
SMILES: CC1(C)S[C@@H]2[C@H](NC(=O)[C@H](N)c3ccc(O)cc3)C(=O)N2[C@H]1C(=O)O.O.O.O [entry 3, amoxicillin trihydrate]

- Amoxicillin released in solution Mean ([1]; 0 min): 0%
- Amoxicillin released in solution #1 ([1]; 0 min): 0%
- Amoxicillin released in solution #2 ([1]; 0 min): 0%
- Amoxicillin released in solution #3 ([1]; 0 min): 0%
- Amoxicillin released in solution Mean ([1]; 1 min, trihydrate): 56.64%
- Amoxicillin released in solution #1 ([1]; 1 min, trihydrate): 54.49%
- Amoxicillin released in solution #2 ([1]; 1 min, trihydrate): 57.74%
- Amoxicillin released in solution #3 ([1]; 1 min, trihydrate): 57.67%
- Amoxicillin released in solution Mean ([1]; 3 min, trihydrate): 77.11%
- Amoxicillin released in solution #1 ([1]; 3 min, trihydrate): 76.32%
- Amoxicillin released in solution #2 ([1]; 3 min, trihydrate): 76.89%
- Amoxicillin released in solution #3 ([1]; 3 min, trihydrate): 78.12%
- Amoxicillin released in solution Mean ([1]; 5 min, trihydrate): 84.17%
- Amoxicillin released in solution #1 ([1]; 5 min, trihydrate): 85.25%
- Amoxicillin released in solution #2 ([1]; 5 min, trihydrate): 82.78%
- Amoxicillin released in solution #3 ([1]; 5 min, trihydrate): 84.47%
- Amoxicillin released in solution Mean ([1]; 10 min, trihydrate): 87.43%
- Amoxicillin released in solution #1 ([1]; 10 min, trihydrate): 88.15%
- Amoxicillin released in solution #2 ([1]; 10 min, trihydrate): 86.80%
- Amoxicillin released in solution #3 ([1]; 10 min, trihydrate): 87.34%
- Amoxicillin released in solution Mean ([1]; 15 min, trihydrate): 89.71%
- Amoxicillin released in solution #1 ([1]; 15 min, trihydrate): 90.61%
- Amoxicillin released in solution #2 ([1]; 15 min, trihydrate): 89.05%
- Amoxicillin released in solution #3 ([1]; 15 min, trihydrate): 89.49%
- Amoxicillin released in solution Mean ([1]; 30 min, trihydrate): 93.77%
- Amoxicillin released in solution #1 ([1]; 30 min, trihydrate): 93.27%
- Amoxicillin released in solution #2 ([1]; 30 min, trihydrate): 95.75%
- Amoxicillin released in solution #3 ([1]; 30 min, trihydrate): 91.85%
- Amoxicillin released in solution Mean ([1]; 60 min, trihydrate): 98.50%
- Amoxicillin released in solution #1 ([1]; 60 min, trihydrate): 97.15%
- Amoxicillin released in solution #2 ([1]; 60 min, trihydrate): 99.70%
- Amoxicillin released in solution #3 ([1]; 60 min, trihydrate): 98.65%
- Amoxicillin released in solution Mean ([1]; 90 min, trihydrate): 99.31%
- Amoxicillin released in solution #1 ([1]; 90 min, trihydrate): 97.76%
- Amoxicillin released in solution #2 ([1]; 90 min, trihydrate): 99.52%
- Amoxicillin released in solution #3 ([1]; 90 min, trihydrate): 100.66%
- Surface Area Mean ± SD (n = 3) [2]: 1.78 ± 0.03 m^2 · g^−1
- Contact Angle Mean ± SD (n = 4) [3]: 110.68 ± 0.23
- Average Particle Size D10 [4]: 1.9 μm
- Average Particle Size D50 [4]: 10.1 μm
- Average Particle Size D90 [4]: 23.1 μm
- Average Particle Size D100 [4]: 44.6 μm
SMILES: CC1(C)S[C@@H]2[C@H](NC(=O)[C@H](N)c3ccc(O)cc3)C(=O)N2[C@H]1C(=O)O.O.O.O [entry 4, amoxicillin trihydrate]
